The text below walks through data of US5206135A, “Use of the oxygenase activity of acetolactate synthase for herbicide detection” (E. I. Du Pont de Nemours and Company, priority 1990, dated 1993).

Bounds are passed on as bounds.

Type in all cases: biochemical
Data set [1] concerns the target T1, acetolactate synthase (Escherichia coli, UniProt P0DP90).
T1 sequence (P0DP90 1-548): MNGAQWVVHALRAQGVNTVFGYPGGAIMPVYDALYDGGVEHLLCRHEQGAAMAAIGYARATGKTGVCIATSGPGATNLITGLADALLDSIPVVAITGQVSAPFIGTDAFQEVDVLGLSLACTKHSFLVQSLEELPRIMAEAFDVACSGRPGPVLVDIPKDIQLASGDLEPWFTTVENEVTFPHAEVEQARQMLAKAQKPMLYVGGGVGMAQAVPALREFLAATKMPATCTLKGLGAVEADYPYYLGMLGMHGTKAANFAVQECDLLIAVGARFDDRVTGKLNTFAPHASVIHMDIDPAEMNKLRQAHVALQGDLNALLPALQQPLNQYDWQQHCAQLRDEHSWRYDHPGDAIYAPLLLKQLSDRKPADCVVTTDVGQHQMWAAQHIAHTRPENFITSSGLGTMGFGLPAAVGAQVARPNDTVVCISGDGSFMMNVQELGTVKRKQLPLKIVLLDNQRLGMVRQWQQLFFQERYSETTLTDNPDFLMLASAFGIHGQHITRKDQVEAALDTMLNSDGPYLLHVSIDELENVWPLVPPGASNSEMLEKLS
T1 sequence (P0ADG1 1-87 partner): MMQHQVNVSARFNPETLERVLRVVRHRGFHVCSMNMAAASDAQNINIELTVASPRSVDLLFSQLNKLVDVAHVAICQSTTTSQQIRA
In words: Oxygenase activity of acetolactate synthase with different substrates (oxygen-sensitive electrode). Here is the method:
(§1) To a 1 ml solution containing 0.1 M tricine-NaOH, pH 8, 10 mM MgCl2, 0.1 mM thiamine pyrophosphate, and 0.1 mM flavin adenine dinucleotide were added various concentrations of pyruvate (10 μM to 10 mM), α-keto-butyrate (10 μM to 80 mM), or acetolactate (0.15 to 5.5 mM). After allowing the solution to equilibrate with air (21 % O2), the level of dissolved oxygen was monitored by use of a commercially available oxygen-sensitive electrode (Hansatech) and polarographic electronics as described by Sweet et al. (Analytical Biochemistry 107:337 (1980)). In the absence of further additions, negligible oxygen was consumed over a 30 minute period. To initiate the consumption of oxygen, 20 μl of a 2 mg/ml stock solution of acetolactate synthase was added if pyruvate or α-acetolactate were used as substrate, or 5 μl of a 49 mg/ml stock solution of acetolactate synthase was added if α-ketobutyrate was used as substrate. The limiting rate of oxygen consumption at saturating concentrations of pyruvate, α-ketobutyrate, or α-acetolactate are illustrated in Table 1. The concentrations of α-acetolactate or α-ketobutyrate that gave half of the maximum rate (the Michaelis constant) were 1.4 mM and 32 μM, respectively.

Data set [2] concerns the target T1, acetolactate synthase. In words: Sensitivity of the oxygenase activity of acetolactate synthase to herbicides (oxygen-sensitive electrode). As to conditions: 100 μM pyruvate as substrate; rate of oxygen consumption; pH 8; read-out: Concentration that Gives 50% Inhibition. The method, then: as §1, with “The concentrations of α-acetolactate or α-ketobutyrate that gave half of the maximum rate (the Michaelis constant) were 1.4 mM and 32 μM, respectively.” left out
Assays were conducted as described under Examples 1-3, except that 100 μM pyruvate was used as substrate. […] These values are similar to previously reported values (Schloss et al. Nature 331:360 (1988)) for inhibition of the enzyme monitored by use of the known acetolactate-forming reaction.

Substrate in data set [3]: CC(=O)C(C)(O)C(=O)O
Kind of data set: Oxygenase activity of acetolactate synthase with different substrates (oxygen-sensitive electrode). As to conditions: other: oxygen consumption, pH 8, air-equilibrated. Here is the method:
as §1

Substrate in data set [4]: CCC(=O)C(=O)O
Described as above. As to conditions: other: oxygen consumption, pH 8, air-equilibrated. The method, then: as §1

Regarding `CC(=O)C(=O)O` [Pyruvate], the Km on acetolactate synthase [1] (oxygen consumption, pH 8, air-equilibrated, read-out: Concentration that gave half of the maximum rate (the Michaelis constant)) was under 10 µM.
Regarding `COc1nc(C)nc(NC(=O)NS(=O)(=O)c2ccccc2Cl)n1` [chlorsulfuron], the IC50 on acetolactate synthase [2] was found to be 500 nM.
For `COC(=O)c1ccccc1S(=O)(=O)NC(=O)Nc1nc(C)cc(C)n1` [sulfometuron methyl], the IC50 at acetolactate synthase [2] came out at 1000 nM.
In the case of `CC(=O)C(C)(O)C(=O)O` (stereo not drawn) [α-Acetolactate], at acetolactate synthase [1] (limiting rate of oxygen consumption at saturating substrate, 0.1 M tricine-NaOH pH 8, air-equilibrated (21 % O2)), the “Maximum rate (μmoles of oxygen consumed/mg enzyme/min)” value is 0.20 μmoles of oxygen consumed/mg e.

B1: acetolactate synthase (Escherichia coli K-12) (protein)
chain: T1 sequence (P0DP90 1-548)
Take B1: the values for the Km in data set [3] and in data set [4] were 1400 µM and 32 µM, respectively.
